Drawing on patent US10457677B2 (priority 2015, dated 2019), this text covers IC50 for 13 compounds.

The structures appear in SMILES notation. pIC50: −log10 of the molar value. Structures can show the parent of a compound that is named as a salt. Where two headings read alike, the source gives them in different places.

One assay has as its target PI3K p110β/p85α (human) (Homo sapiens (Human), UniProt P42338). Nature of the assay: PI3K p110β/p85α (human), non-radioactive assay (HTRF). In kind it is biochemical. Conditions: read-out: IC50 (PI3Kbeta). The method, boiled down: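 Human p110β/p85α incubated with 10 μM phosphatidylinositol 4,5-bisphosphate and MgATP for 30 min at room temperature, stopped with EDTA plus biotinylated PIP3. HTRF detection used a Eu-anti-GST antibody, GST-GRP1 PH domain and streptavidin-APC, with signal taken as 10000×(Em665nm/Em620nm).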

Another assay has as its target PI3K p110δ/p85α (human) (Homo sapiens (Human), UniProt O00329). As to the kind of experiment: PI3K p110δ/p85α (human), non-radioactive assay (HTRF). In kind it is biochemical. Conditions: read-out: IC50 (PI3Kdelta). Background: In TR-FRET formats the signal depends on donor and acceptor labels being close together.
Assay [1] deals with phosphorylation of CHK2 (phospho-Thr68) in HCT116 cells. As to the kind of experiment: Cellular pCHK2 assay: bleomycin-induced phosphorylation of CHK2 (phospho-Thr68), immunofluorescence high-content analysis. It counts as cell-based, human. The settings on record: Homo sapiens, HCT-116, 4 h, read-out: IC50 (pCHK2). The method, boiled down:
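HCT116 cells in DMEM with 10% FCS, incubated overnight at 37° C, then given compounds (1 nM to 30 μM, 0.5% DMSO) together with 10 μM bleomycin. Phospho-Thr68 CHK2 immunostained and imaged by high-content imager; nuclei with pCHK2 above background counted, cell count from propidium iodide DNA stain.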

The next assay concerns the target mTOR (human) (Homo sapiens (Human), UniProt P42345). Nature of the assay: mTOR (human) kinase assay, [γ-33P-ATP] filter assay. It counts as biochemical. In short, it runs like this:
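Radiometric filter assay: enzyme in 50 mM HEPES pH 7.5, 1 mM EGTA, 0.01% Tween 20, 3 mM MnCl2, 2 mg/ml substrate with [γ-33P-ATP], started with MgATP. Incubated 40 min at room temperature, stopped with 3% phosphoric acid; incorporation measured on P30 filtermat by scintillation counting.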

In another assay the target is PI3K p110α/p85α (human) (Homo sapiens (Human), UniProt P42336). Nature of the assay: PI3K p110α/p85α (human), non-radioactive assay (HTRF). In kind it is biochemical. The settings on record: read-out: IC50 (PI3Kalpha).
The target of the next assay is PI3K (p120γ) (human) (Homo sapiens (Human), UniProt P48736). As to the kind of experiment: PI3K (p120γ) (human), non-radioactive assay (HTRF). In kind it is biochemical. Conditions: read-out: IC50 (PI3Kgamma). The method, boiled down:
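Enzyme was run with 10 μM phosphatidylinositol 4,5-bisphosphate, starting the reaction with MgATP at an unspecified level, for 30 min at room temperature. The stop used EDTA plus biotinylated PIP3, and detection used Eu-anti-GST, GST-GRP1 PH domain and streptavidin-APC. Signal was taken as HTRF = 10000×(Em665nm/Em620nm).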

In assay [2] the target is purified human recombinant ATM (ataxia telangiectasia mutated), full length (Homo sapiens (Human), UniProt Q13315). As to the kind of experiment: ATM kinase assay - determination of ATM inhibition (IC50 ATM), TR-FRET. It counts as biochemical. The method, boiled down: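 Full-length enzyme, expressed in a mammalian cell line, pre-incubated 15 min with inhibitor in 25 mM HEPES pH 8.0, 10 mM Mg(CH3COO)2, 1 mM MnCl2, 0,1% BSA, 0,01% Brij 35, 5 mM DTT. Full-length cmyc-p53 (Sf21-expressed) and ATP then added, 30-35 min at 22° C. EDTA stop; p53 S15 phosphorylation read by TR-FRET antibodies.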
purified human recombinant ATM (ataxia telangiectasia mutated), full length, sequence (Q13315 whole entry, change not shown): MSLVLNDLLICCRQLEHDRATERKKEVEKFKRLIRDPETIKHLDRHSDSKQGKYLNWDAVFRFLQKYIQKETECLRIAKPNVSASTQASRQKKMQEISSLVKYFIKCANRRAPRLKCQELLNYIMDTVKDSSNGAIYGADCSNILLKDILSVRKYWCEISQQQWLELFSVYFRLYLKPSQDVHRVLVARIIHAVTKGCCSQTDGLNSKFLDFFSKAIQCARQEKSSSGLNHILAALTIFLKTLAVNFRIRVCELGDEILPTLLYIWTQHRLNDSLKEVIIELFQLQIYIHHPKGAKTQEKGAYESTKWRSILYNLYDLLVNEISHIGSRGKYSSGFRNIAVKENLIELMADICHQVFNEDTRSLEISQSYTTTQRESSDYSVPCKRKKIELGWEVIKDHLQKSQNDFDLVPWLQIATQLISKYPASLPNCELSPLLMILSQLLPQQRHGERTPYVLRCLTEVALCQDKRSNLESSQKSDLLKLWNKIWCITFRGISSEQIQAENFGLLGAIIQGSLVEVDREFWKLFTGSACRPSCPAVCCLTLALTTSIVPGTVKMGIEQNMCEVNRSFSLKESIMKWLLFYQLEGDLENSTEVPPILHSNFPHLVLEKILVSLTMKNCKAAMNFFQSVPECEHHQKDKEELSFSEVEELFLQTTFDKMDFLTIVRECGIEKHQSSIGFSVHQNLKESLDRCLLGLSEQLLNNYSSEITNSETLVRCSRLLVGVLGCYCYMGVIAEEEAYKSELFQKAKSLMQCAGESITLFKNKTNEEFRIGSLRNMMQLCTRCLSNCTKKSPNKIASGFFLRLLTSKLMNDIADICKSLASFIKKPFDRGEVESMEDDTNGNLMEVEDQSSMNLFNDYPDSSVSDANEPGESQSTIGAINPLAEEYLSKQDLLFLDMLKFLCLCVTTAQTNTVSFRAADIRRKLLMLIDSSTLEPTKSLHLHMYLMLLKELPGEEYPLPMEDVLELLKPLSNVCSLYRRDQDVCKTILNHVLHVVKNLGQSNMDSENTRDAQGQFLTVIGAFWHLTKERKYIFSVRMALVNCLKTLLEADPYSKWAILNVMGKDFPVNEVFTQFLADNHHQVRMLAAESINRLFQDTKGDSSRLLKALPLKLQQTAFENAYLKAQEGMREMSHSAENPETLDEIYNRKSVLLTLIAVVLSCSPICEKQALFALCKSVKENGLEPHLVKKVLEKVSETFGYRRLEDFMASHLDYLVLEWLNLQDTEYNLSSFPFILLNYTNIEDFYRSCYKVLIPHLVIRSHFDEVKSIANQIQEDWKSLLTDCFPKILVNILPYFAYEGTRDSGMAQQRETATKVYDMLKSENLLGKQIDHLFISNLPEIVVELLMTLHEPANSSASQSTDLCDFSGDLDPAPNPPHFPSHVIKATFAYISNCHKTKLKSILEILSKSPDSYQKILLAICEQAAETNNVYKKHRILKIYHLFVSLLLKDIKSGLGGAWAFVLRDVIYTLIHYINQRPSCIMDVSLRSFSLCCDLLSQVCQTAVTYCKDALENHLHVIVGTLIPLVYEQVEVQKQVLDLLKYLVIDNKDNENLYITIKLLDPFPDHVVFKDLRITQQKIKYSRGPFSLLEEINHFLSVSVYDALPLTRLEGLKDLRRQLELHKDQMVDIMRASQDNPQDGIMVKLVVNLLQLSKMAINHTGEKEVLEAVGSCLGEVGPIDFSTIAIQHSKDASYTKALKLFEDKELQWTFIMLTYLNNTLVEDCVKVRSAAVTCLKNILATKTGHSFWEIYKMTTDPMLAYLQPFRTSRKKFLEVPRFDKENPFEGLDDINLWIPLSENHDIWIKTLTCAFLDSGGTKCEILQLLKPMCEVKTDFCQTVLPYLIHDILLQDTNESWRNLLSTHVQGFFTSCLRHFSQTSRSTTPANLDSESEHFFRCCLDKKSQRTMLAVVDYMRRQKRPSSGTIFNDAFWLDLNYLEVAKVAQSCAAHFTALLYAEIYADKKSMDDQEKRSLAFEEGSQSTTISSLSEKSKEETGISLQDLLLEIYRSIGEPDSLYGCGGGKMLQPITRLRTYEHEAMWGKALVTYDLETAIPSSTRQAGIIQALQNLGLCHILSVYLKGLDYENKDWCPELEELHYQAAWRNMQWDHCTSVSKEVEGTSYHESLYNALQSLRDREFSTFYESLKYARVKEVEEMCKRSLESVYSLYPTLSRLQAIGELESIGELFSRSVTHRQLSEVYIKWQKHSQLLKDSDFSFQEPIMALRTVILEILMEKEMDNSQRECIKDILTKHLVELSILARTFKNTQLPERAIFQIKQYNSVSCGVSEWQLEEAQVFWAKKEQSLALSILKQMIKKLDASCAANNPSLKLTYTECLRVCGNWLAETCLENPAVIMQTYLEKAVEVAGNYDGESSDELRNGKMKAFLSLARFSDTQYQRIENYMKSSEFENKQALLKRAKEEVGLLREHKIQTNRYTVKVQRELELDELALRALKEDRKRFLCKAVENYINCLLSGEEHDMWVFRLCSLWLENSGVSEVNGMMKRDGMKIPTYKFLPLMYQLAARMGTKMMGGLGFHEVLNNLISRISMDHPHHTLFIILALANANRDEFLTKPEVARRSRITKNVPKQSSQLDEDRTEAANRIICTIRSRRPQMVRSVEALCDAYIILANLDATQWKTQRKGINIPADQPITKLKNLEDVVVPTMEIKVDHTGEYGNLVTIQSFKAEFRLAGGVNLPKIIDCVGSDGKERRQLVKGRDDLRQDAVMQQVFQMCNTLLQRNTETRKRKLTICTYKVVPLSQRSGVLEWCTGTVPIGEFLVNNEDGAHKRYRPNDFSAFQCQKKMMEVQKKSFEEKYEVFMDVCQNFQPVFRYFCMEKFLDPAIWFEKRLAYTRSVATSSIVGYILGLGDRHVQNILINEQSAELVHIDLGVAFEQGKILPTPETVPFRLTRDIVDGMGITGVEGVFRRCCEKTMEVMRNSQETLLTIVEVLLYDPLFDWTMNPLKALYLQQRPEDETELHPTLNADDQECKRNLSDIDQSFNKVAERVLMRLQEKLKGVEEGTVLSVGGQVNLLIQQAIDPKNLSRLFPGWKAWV

PI3K p110α/p85α (human), sequence (P42336 whole entry): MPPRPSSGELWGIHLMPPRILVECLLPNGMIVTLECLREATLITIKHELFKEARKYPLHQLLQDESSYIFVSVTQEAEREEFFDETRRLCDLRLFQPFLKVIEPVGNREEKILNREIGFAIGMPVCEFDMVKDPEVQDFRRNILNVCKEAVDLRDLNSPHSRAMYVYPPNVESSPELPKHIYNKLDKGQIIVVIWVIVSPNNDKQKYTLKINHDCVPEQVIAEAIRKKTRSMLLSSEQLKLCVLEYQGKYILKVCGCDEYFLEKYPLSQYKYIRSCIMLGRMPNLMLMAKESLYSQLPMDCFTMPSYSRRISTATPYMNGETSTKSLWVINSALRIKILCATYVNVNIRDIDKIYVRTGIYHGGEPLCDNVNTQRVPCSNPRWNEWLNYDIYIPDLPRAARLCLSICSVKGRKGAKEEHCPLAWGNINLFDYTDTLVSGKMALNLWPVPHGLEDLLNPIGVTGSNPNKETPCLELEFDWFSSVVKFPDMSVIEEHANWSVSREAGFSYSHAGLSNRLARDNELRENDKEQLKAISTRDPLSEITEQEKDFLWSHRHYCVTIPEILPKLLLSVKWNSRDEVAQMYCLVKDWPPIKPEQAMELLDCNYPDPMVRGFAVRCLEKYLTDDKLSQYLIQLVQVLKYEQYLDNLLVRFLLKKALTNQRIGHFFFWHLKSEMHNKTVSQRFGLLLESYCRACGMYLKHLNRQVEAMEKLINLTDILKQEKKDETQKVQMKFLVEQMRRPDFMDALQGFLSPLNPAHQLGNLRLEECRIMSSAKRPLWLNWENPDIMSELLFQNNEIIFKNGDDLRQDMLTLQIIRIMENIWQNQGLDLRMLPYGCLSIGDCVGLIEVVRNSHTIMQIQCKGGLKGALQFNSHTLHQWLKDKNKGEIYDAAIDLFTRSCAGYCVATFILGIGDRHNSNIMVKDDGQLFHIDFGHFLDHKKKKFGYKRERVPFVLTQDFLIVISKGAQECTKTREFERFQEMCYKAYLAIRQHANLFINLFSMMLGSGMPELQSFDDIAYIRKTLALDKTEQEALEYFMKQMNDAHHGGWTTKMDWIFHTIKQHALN
PI3K p110α/p85α (human), sequence (P27986 whole entry partner): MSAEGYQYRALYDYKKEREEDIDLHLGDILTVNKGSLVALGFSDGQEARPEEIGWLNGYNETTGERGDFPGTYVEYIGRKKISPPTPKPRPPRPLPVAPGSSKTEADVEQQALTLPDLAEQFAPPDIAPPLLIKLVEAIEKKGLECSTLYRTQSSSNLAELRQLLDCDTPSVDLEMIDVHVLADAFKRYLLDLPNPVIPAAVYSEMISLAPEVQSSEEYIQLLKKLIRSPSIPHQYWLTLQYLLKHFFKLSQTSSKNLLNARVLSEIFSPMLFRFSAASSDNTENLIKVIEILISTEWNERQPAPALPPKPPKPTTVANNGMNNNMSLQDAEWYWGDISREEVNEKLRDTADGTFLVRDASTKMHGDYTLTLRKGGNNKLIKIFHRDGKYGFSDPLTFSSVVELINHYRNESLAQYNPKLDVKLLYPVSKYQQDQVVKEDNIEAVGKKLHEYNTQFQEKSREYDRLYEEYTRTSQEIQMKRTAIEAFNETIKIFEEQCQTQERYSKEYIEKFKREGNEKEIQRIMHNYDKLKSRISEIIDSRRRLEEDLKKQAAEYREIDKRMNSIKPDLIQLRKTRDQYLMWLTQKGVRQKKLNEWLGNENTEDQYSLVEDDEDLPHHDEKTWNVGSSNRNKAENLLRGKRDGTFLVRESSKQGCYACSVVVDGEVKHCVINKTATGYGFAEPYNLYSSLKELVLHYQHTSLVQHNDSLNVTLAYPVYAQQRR

As for `CCc1cncc(F)c1-n1c(=O)n(C)c2cnc3cc(OC)c(-c4cnn(CC)c4)cc3c21` [Compound Example 25, 1-(3-Ethyl-5-fluoropyridin-4-yl)-8-(1-ethyl-1H-pyrazol-4-yl)-7-methoxy-3-methyl-1,3-dihydroimidazo[4,5-c] quinolin-2-one], the pIC50 is below 4.52 on PI3K p110β/p85α (human); below 4.52 on PI3K p110δ/p85α (human); above 6.70 in assay [1]; below 4.52 against mTOR (human); below 4.52 on PI3K p110α/p85α (human); below 4.52 on PI3K (p120γ) (human). Further, the pIC50 was above 9.00 in assay [2] and above 9.00 in assay [2] (10 μM ATP, substrate p53).
As to `COc1cc2ncc3c(c2cc1-c1cnn(C)c1)n(-c1ncc(C)cc1F)c(=O)n3C` [Compound Example 27, 1-(3-Fluoro-5-methylpyridin-2-yl)-7-methoxy-3-methyl-8-(1-methyl-1H-pyrazol-4-yl)-1,3-dihydroimidazo[4,5-c] quinolin-2-one], the pIC50 is below 4.52 at PI3K p110β/p85α (human); below 4.52 at PI3K p110δ/p85α (human); above 6.70 in assay [1]; below 4.52 at mTOR (human); below 4.52 on PI3K p110α/p85α (human); below 4.52 on PI3K (p120γ) (human). For the same compound, the pIC50 was above 9.00 in assay [2] and above 9.00 in assay [2] (10 μM ATP, substrate p53).
As for `COc1cc2ncc3c(c2cc1-c1cnn(C)c1)n(-c1ccncc1OC)c(=O)n3C` [Compound Example 28, 7-Methoxy-1-(3-methoxy-pyridin-4-yl)-3-methyl-8-(1-methyl-1H-pyrazol-4-yl)-1,3-dihydroimidazo[4,5-c] quinolin-2-one], the pIC50 is below 4.52 on PI3K p110β/p85α (human); below 4.52 on PI3K p110δ/p85α (human); above 6.70 in assay [1]; below 4.52 against mTOR (human); below 4.52 on PI3K p110α/p85α (human); below 4.52 at PI3K (p120γ) (human). The pIC50 in assay [2] was above 8.00; in assay [2] (10 μM ATP, substrate p53), above 8.00.
With `COc1cc2ncc3c(c2cc1-c1cc(C)[nH]n1)n(-c1ncccc1F)c(=O)n3C` [Compound Example 29, 1-(3-Fluoropyridin-2-yl)-7-methoxy-3-methyl-8-(5-methyl-1H-pyrazol-3-yl)-1,3-dihydroimidazo[4,5-c] quinolin-2-one], the pIC50 at PI3K p110β/p85α (human) was below 4.52; on PI3K p110δ/p85α (human) it was below 4.52; in assay [1], above 6.70; at mTOR (human), below 4.52; on PI3K p110α/p85α (human) it was below 4.52; on PI3K (p120γ) (human), below 4.52. The pIC50 is above 8.00 in assay [2] and above 8.00 in assay [2] (10 μM ATP, substrate p53).
As for `COc1cc2ncc3c(c2cc1-c1cn[nH]c1)n(-c1csc(C)n1)c(=O)n3C` [Compound Example 30, 7-Methoxy-3-methyl-1-(2-methylthiazol-4-yl)-8-(1H-pyrazol-4-yl)-1,3-dihydro-imidazo[4,5-c]quinolin-2-one], the pIC50 is below 4.52 at PI3K p110β/p85α (human); below 4.52 at PI3K p110δ/p85α (human); above 6.70 in assay [1]; below 4.52 against mTOR (human); below 4.52 on PI3K p110α/p85α (human); below 4.52 on PI3K (p120γ) (human). Moreover, the pIC50 in assay [2] is above 8.00; in assay [2] (10 μM ATP, substrate p53) it was above 8.00.
Turning to `COc1cc2ncc3c(c2cc1-c1cnn(C)c1)n(-c1ncncc1F)c(=O)n3C` [Compound Example 31, 1-(5-Fluoropyrimidin-4-yl)-7-methoxy-3-methyl-8-(1-methyl-1H-pyrazol-4-yl)-1H,2H,3H-imidazo[4,5-c] quinolin-2-one hydrochloride], the pIC50 was below 4.52 on PI3K p110β/p85α (human); below 4.52 on PI3K p110δ/p85α (human); above 6.70 in assay [1]; below 4.52 against mTOR (human); below 4.52 on PI3K p110α/p85α (human); below 4.52 at PI3K (p120γ) (human). Further, the pIC50 in assay [2] is above 8.00; in assay [2] (10 μM ATP, substrate p53), above 8.00.
Turning to `CCn1cc(-c2cc3c(cc2OC)ncc2c3n(-c3ccncc3F)c(=O)n2C)cn1` [Compound Example 33, 8-(1-Ethyl-1H-pyrazol-4-yl)-1-(3-fluoropyridin-4-yl)-7-methoxy-3-methyl-1,3-dihydroimidazo[4,5-c] quinolin-2-one], the pIC50 at PI3K p110β/p85α (human) is below 4.52; on PI3K p110δ/p85α (human), below 4.52; in assay [1], above 6.70; on mTOR (human) it was below 4.52; on PI3K p110α/p85α (human), below 4.52; on PI3K (p120γ) (human), below 4.52. The pIC50 in assay [2] is above 9.00; in assay [2] (10 μM ATP, substrate p53) it was above 9.00.
On to `CCn1cc(-c2cc3c(cc2OC)ncc2c3n(-c3ccncc3C)c(=O)n2C)cn1` [Compound Example 34, 8-(1-Ethyl-1H-pyrazol-4-yl)-7-methoxy-3-methyl-1-(3-methylpyridin-4-yl)-1,3-dihydroimidazo[4,5-c] quinolin-2-one], for which the pIC50 was below 4.52 at PI3K p110β/p85α (human); below 4.52 at PI3K p110δ/p85α (human); above 6.70 in assay [1]; below 4.52 against mTOR (human); below 4.52 at PI3K p110α/p85α (human); below 4.52 at PI3K (p120γ) (human). Moreover, the pIC50 in assay [2] is above 8.00; in assay [2] (10 μM ATP, substrate p53), above 8.00.
Regarding `COc1cc2ncc3c(c2cc1-c1cnn(C)c1)n(-c1ccncc1F)c(=O)n3C` [Compound Example 35, 1-(3-Fluoropyridin-4-yl)-7-methoxy-3-methyl-8-(1-methyl-1H-pyrazol-4-yl)-1,3-dihydroimidazo[4,5-c] quinolin-2-one], the pIC50 at PI3K p110β/p85α (human) was below 4.52; on PI3K p110δ/p85α (human) it was below 4.52; in assay [1] it was above 6.70; against mTOR (human), below 4.52; on PI3K p110α/p85α (human), below 4.52; on PI3K (p120γ) (human), below 4.52. The pIC50 is above 8.00 in assay [2] and above 8.00 in assay [2] (10 μM ATP, substrate p53).
In the case of `COc1cc2ncc3c(c2cc1-c1cnn(C)c1)n(-c1ncc(F)cn1)c(=O)n3C` [Compound Example 36, 1-(5-Fluoropyrimidin-2-yl)-7-methoxy-3-methyl-8-(1-methyl-1H-pyrazol-4-yl)-1,3-dihydroimidazo[4,5-c] quinolin-2-one], the pIC50 at PI3K p110β/p85α (human) was below 4.52; at PI3K p110δ/p85α (human), below 4.52; in assay [1], above 6.70; against mTOR (human), below 4.52; at PI3K p110α/p85α (human), below 4.52; at PI3K (p120γ) (human) it was below 4.52. For the same compound, the pIC50 was above 9.00 in assay [2] and above 8.00 in assay [2] (10 μM ATP, substrate p53).
Take `COc1cc2ncc3c(c2cc1-c1cn[nH]c1)n(-c1cnn(C2CCOCC2)c1)c(=O)n3C` [Compound Example 37, 7-Methoxy-3-methyl-8-(1H-pyrazol-4-yl)-1-[1-(tetrahydropyran-4-yl)-1H-pyrazol-4-yl]-1,3-dihydro-imidazo[4,5-c] quinolin-2-one]: the pIC50 on PI3K p110β/p85α (human) was below 4.52; on PI3K p110δ/p85α (human), below 4.52; in assay [1], above 6.70; on mTOR (human) it was below 5.00; at PI3K p110α/p85α (human) it was below 4.52; at PI3K (p120γ) (human) it was below 4.52. Moreover, the pIC50 was above 8.00 in assay [2] and above 8.00 in assay [2] (10 μM ATP, substrate p53).
As to `CCn1cc(-c2cc3c(cc2OC)ncc2c3n(-c3c(C)cncc3F)c(=O)n2C)cn1` [Compound Example 38, 8-(1-Ethyl-1H-pyrazol-4-yl)-1-(3-fluoro-5-methylpyridin-4-yl)-7-methoxy-3-methyl-1,3-dihydroimidazo[4,5-c] quinolin-2-one], the pIC50 on PI3K p110β/p85α (human) is below 4.52; on PI3K p110δ/p85α (human), below 4.52; in assay [1], 6.00 to 6.70; against mTOR (human) it was below 4.52; on PI3K p110α/p85α (human), below 4.52; at PI3K (p120γ) (human), below 4.52. The pIC50 in assay [2] is above 9.00; in assay [2] (10 μM ATP, substrate p53), above 9.00.
As for `COc1cc2ncc3c(c2cc1-c1cnn(C)c1)n(-c1ccncc1C)c(=O)n3C` [Compound Example 40, 7-Methoxy-3-methyl-8-(1-methyl-1H-pyrazol-4-yl)-1-(3-methylpyridin-4-yl)-1,3-dihydroimidazo[4,5-c] quinolin-2-one], the pIC50 on PI3K p110β/p85α (human) was below 4.52; at PI3K p110δ/p85α (human), below 4.52; in assay [1], 6.00 to 6.70; at mTOR (human) it was below 4.52; at PI3K p110α/p85α (human), below 4.52; at PI3K (p120γ) (human) it was below 4.52. Also, the pIC50 in assay [2] was above 8.00; in assay [2] (10 μM ATP, substrate p53), above 8.00.
